Test results from patent US11453703B2, “Heterotandem bicyclic peptide complexes” (BicycleTX Limited, priority 2018, dated 2022).

Molecular target: CD137 (Homo sapiens, UniProt Q07011)
Assay: CD137 reporter assay, co-culture with EphA2 tumour cells
Assay type: cell-based
Set-up: host or cells: Jurkat reporter cells
Experimental: Culture medium referred to as R1 media is prepared by adding 1% FBS to RPMI-1640 (component of Promega kit CS196005). Serial dilutions of test articles in R1 are prepared in a sterile 96 well-plate. Use 25 μl per well of test articles or R1 (as a background control) to designated wells in white cell culture plate. Tumour cells* are harvested and resuspended at a concentration of 400,000 cells/mL in R1 media. Twenty five (25) μL/well tumour cells are used in white cell culture plate. Jurkat cells (Promega kit CS196005, 0.5 mL) are thawed in the water bath and then added to 5 ml pre-warmed R1 medium. Twenty five (25) μL/well Jurkat cells are used in white cell culture plate. Incubate the cells and test articles for 6h at 37° C., 5% CO2. At the end of 6 h, add 75 μl/well Bio-Glo™ (Promega) and incubate for 10 min before reading luminescence in a plate reader (Clariostar, BMG). The fold change relative to cells (Jurkat cells+Cell line used in co-culture) is calculated and plotted in GraphPad Prism as log(agonist) vs response to determine EC50 (nM) and Fold Induction over background (Max)

[1] = tumour target EphA2, co-culture with SC-OV-3, 6 h
[2] = tumour target EphA2, co-culture with PC3, 6 h

Chain of CD137 (Q07011 24-255): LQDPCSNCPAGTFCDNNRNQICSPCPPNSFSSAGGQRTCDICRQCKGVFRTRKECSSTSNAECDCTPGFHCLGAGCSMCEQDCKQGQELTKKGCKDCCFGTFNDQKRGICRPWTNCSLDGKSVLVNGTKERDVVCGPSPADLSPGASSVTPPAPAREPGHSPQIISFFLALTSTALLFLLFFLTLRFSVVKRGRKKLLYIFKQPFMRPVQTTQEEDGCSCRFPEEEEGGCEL

SMILES	Fold Induction over Background [1] [fold]	Fold Induction over Background [2] [fold]	other results
CCCC[C@@H]1NC(=O)[C@H](Cc2ccc(O)cc2)NC(=O)[C@@H]2CCCN2C(=O)[C@H](CC(=O)O)NC(=O)[C@H](C)NC(=O)[C@H](Cc2ccccc2)NC(=O)[C@@H]2CSCCC(=O)N3CN(CN(C3)C(=O)CCSC[C@@H](C(=O)N[C@@H](CNC(=O)CCOCCOCCOCCOCCOCCOCCOCCOCCOCCOCCOCCOCCn3cc(CCC(=O)NCCC(=O)N(C)CC(=O)N(C)CC(=O)N(C)CC(=O)N(C)CC(=O)N(C)CC(=O)N(C)CC(=O)N(C)CC(=O)N(C)CC(=O)N(C)CC(=O)N(C)CC(=O)N[C@@H](C)C(=O)N[C@@H](CCCCNC(=N)N)C(=O)N[C@@H](CC(=O)O)C(=O)N[C@H]4CSCCC(=O)N5CN6CN(C5)C(=O)CCSC[C@H](NC(=O)[C@H](CC(C)C)NC(=O)[C@@H]5CCCN5C(=O)[C@H](CC(N)=O)NC(=O)[C@H](C(C)C)NC(=O)[C@H](CC(C)C)NC(=O)[C@@H]5C[C@@H](O)CN5C4=O)C(=O)N[C@@H](CC(C)C)C(=O)N[C@@H](Cc4c[nH]cn4)C(=O)N4CCC[C@H]4C(=O)N[C@H](CC(=O)O)C(=O)N[C@@H](Cc4c[nH]c5ccccc45)C(=O)N[C@@H](CCCCNC(=N)N)C(=O)N[C@H](C(N)=O)CSCCC6=O)nn3)C(N)=O)NC1=O)C(=O)CCSC[C@H](NC(=O)[C@H](C)NC(C)=O)C(=O)N[C@@H]([C@@H](C)CC)C(=O)N[C@@H](CCC(=O)O)C(=O)N[C@@H](CCC(=O)O)C(=O)NCC(=O)N[C@@H](CCC(N)=O)C(=O)N[C@@H](Cc1ccc(O)cc1)C(=O)N2 [BCY7985]	15		induction of CD137 cell activity (Promega CD137 luciferase reporter assay, in the presence of EphA2-expressing HT1080 cells (FIG. 3)): strong induction of CD137 cell activity; CD137 induction (in the absence of HT1080 cells (FIG. 3)): no CD137 induction
CCCC[C@@H]1NC(=O)[C@H](Cc2ccc(O)cc2)NC(=O)[C@@H]2CCCN2C(=O)[C@H](CC(=O)O)NC(=O)[C@H](C)NC(=O)[C@H](Cc2ccccc2)NC(=O)[C@@H]2CSCCC(=O)N3CN(CN(C3)C(=O)CCSC[C@@H](C(=O)N[C@@H](CNC(=O)CCOCCOCCOCCOCCOCCOCCOCCOCCOCCOCCOCCOCCn3cc(CCC(=O)NCCC(=O)N(C)CC(=O)N(C)CC(=O)N(C)CC(=O)N(C)CC(=O)N(C)CC(=O)N(C)CC(=O)N(C)CC(=O)N(C)CC(=O)N(C)CC(=O)N(C)CC(=O)N[C@H](C(=O)NCC(=O)N4CCC[C@H]4C(=O)N[C@H]4CSCCC(=O)N5CN6CN(C5)C(=O)CCSC[C@H](NC(=O)[C@@H]5CCCN5C(=O)[C@H]([C@@H](C)O)NC(=O)[C@@H]5CCCN5C(=O)[C@H](CC(=O)O)NC(=O)[C@H](Cc5c[nH]c7ccccc57)NC(=O)[C@H](CC(C)C)NC4=O)C(=O)N[C@@H](C)C(=O)N[C@@H](CC(N)=O)C(=O)N[C@@H](CC(C)C)C(=O)N[C@@H](Cc4c[nH]cn4)C(=O)N[C@@H](CC(C)C)C(=O)N[C@@H](CCCCNC(=N)N)C(=O)N[C@H](C(N)=O)CSCCC6=O)C(C)C)nn3)C(N)=O)NC1=O)C(=O)CCSC[C@H](NC(=O)[C@H](C)NC(C)=O)C(=O)N[C@@H]([C@@H](C)CC)C(=O)N[C@@H](CCC(=O)O)C(=O)N[C@@H](CCC(=O)O)C(=O)NCC(=O)N[C@@H](CCC(N)=O)C(=O)N[C@@H](Cc1ccc(O)cc1)C(=O)N2 [BCY8943]			fold induction at 0.1 µM (tumour target EphA2, co-culture with PC3, at 100 nM, read-out: Fold Induction over Background at 100 nM): < 2
CCCC[C@@H]1NC(=O)[C@H](Cc2ccc(O)cc2)NC(=O)[C@@H]2CCCN2C(=O)[C@H](CC(=O)O)NC(=O)[C@H](C)NC(=O)[C@H](Cc2ccccc2)NC(=O)[C@@H]2CSCCC(=O)N3CN(CN(C3)C(=O)CCSC[C@@H](C(=O)N[C@@H](CNC(=O)CCOCCOCCOCCOCCOCCOCCOCCOCCOCCOCCOCCOCCn3cc(CCC(=O)NCCC(=O)N(C)CC(=O)N(C)CC(=O)N(C)CC(=O)N(C)CC(=O)N(C)CC(=O)N(C)CC(=O)N(C)CC(=O)N(C)CC(=O)N(C)CC(=O)N(C)CC(=O)N[C@@H](C)C(=O)N[C@@H](CCCCNC(=N)N)C(=O)N[C@@H](CC(=O)O)C(=O)N[C@H]4CSCCC(=O)N5CN6CN(C5)C(=O)CCSC[C@H](NC(=O)[C@H](CC(C)C)NC(=O)[C@@H]5CCCN5C(=O)[C@H](CC(N)=O)NC(=O)[C@H](C(C)C)NC(=O)[C@H](CC(C)C)NC(=O)[C@@H]5C[C@@H](O)CN5C4=O)C(=O)N[C@@H](CC(C)C)C(=O)N[C@@H](Cc4c[nH]cn4)C(=O)N4CCC[C@H]4C(=O)N[C@H](CC(=O)O)C(=O)N[C@@H](Cc4c[nH]c5ccccc45)C(=O)N[C@@H](CCCCNC(=N)N)C(=O)N[C@H](C(N)=O)CSCCC6=O)nn3)C(N)=O)NC1=O)C(=O)CCSC[C@H](NC(C)=O)C(=O)N[C@@H](CC(C)(C)C)C(=O)N1CCC[C@H]1C(=O)N[C@@H](CCC(=O)O)C(=O)N[C@H](C)C(=O)N1CCC[C@H]1C(=O)N[C@@H](Cc1ccc(O)cc1)C(=O)N2 [BCY9173]	21		
CCCC[C@@H]1NC(=O)[C@H](Cc2ccc(O)cc2)NC(=O)[C@@H]2CCCN2C(=O)[C@H](CC(=O)O)NC(=O)[C@H](C)NC(=O)[C@H](Cc2ccccc2)NC(=O)[C@@H]2CSCCC(=O)N3CN(CN(C3)C(=O)CCSC[C@@H](C(=O)N[C@@H](CNC(=O)CCOCCOCCOCCOCCOCCOCCOCCOCCOCCOCCOCCOCCOCCOCCOCCOCCOCCOCCOCCOCCOCCOCCOCCOCCOCCC(=O)NCCC(=O)N(C)CC(=O)N(C)CC(=O)N(C)CC(=O)N(C)CC(=O)N(C)CC(=O)N(C)CC(=O)N(C)CC(=O)N(C)CC(=O)N(C)CC(=O)N(C)CC(=O)N[C@@H](C)C(=O)N[C@@H](CCCCNC(=N)N)C(=O)N[C@@H](CC(=O)O)C(=O)N[C@H]3CSCCC(=O)N4CN5CN(C4)C(=O)CCSC[C@H](NC(=O)[C@H](CC(C)C)NC(=O)[C@@H]4CCCN4C(=O)[C@H](CC(N)=O)NC(=O)[C@H](C(C)C)NC(=O)[C@H](CC(C)C)NC(=O)[C@@H]4C[C@@H](O)CN4C3=O)C(=O)N[C@@H](CC(C)C)C(=O)N[C@@H](Cc3c[nH]cn3)C(=O)N3CCC[C@H]3C(=O)N[C@H](CC(=O)O)C(=O)N[C@@H](Cc3c[nH]c4ccccc34)C(=O)N[C@@H](CCCCNC(=N)N)C(=O)N[C@H](C(N)=O)CSCCC5=O)C(N)=O)NC1=O)C(=O)CCSC[C@H](NC(=O)[C@H](C)NC(C)=O)C(=O)N[C@@H]([C@@H](C)CC)C(=O)N[C@@H](CCC(=O)O)C(=O)N[C@@H](CCC(=O)O)C(=O)NCC(=O)N[C@@H](CCC(N)=O)C(=O)N[C@@H](Cc1ccc(O)cc1)C(=O)N2 [BCY9758]	7		EC50 [1]: 1.2 nM
CCCC[C@@H]1NC(=O)[C@H](Cc2ccc(O)cc2)NC(=O)[C@@H]2CCCN2C(=O)[C@H](CC(=O)O)NC(=O)[C@H](C)NC(=O)[C@H](Cc2ccccc2)NC(=O)[C@@H]2CSCCC(=O)N3CN(CN(C3)C(=O)CCSC[C@@H](C(=O)N[C@@H](C)C(N)=O)NC1=O)C(=O)CCSC[C@H](NC(C)=O)C(=O)N[C@@H](CC(C)(C)C)C(=O)N1CCC[C@H]1C(=O)N[C@@H](CCCCNC(=O)CCOCCOCCOCCOCCOCCOCCOCCOCCOCCOCCOCCOCCn1cc(CCC(=O)NCCC(=O)N(C)CC(=O)N(C)CC(=O)N(C)CC(=O)N(C)CC(=O)N(C)CC(=O)N(C)CC(=O)N(C)CC(=O)N(C)CC(=O)N(C)CC(=O)N(C)CC(=O)N[C@@H](C)C(=O)N[C@@H](CCCCNC(=N)N)C(=O)N[C@@H](CC(=O)O)C(=O)N[C@H]3CSCCC(=O)N4CN5CN(C4)C(=O)CCSC[C@H](NC(=O)[C@H](CC(C)C)NC(=O)[C@@H]4CCCN4C(=O)[C@H](CC(N)=O)NC(=O)[C@H](C(C)C)NC(=O)[C@H](CC(C)C)NC(=O)[C@@H]4C[C@@H](O)CN4C3=O)C(=O)N[C@@H](CC(C)C)C(=O)N[C@@H](Cc3c[nH]cn3)C(=O)N3CCC[C@H]3C(=O)N[C@H](CC(=O)O)C(=O)N[C@@H](Cc3c[nH]c4ccccc34)C(=O)N[C@@H](CCCCNC(=N)N)C(=O)N[C@H](C(N)=O)CSCCC5=O)nn1)C(=O)N[C@H](C)C(=O)N1CCC[C@H]1C(=O)N[C@@H](Cc1ccc(O)cc1)C(=O)N2 [BCY10568]		32	
CCCC[C@@H]1NC(=O)[C@H](Cc2ccc(O)cc2)NC(=O)[C@@H]2CCCN2C(=O)[C@H](CC(=O)O)NC(=O)[C@H](C)NC(=O)[C@H](Cc2ccccc2)NC(=O)[C@@H]2CSCCC(=O)N3CN(CN(C3)C(=O)CCSC[C@@H](C(=O)N[C@@H](C)C(N)=O)NC1=O)C(=O)CCSC[C@H](NC(C)=O)C(=O)N[C@@H](CC(C)(C)C)C(=O)N1CCC[C@H]1C(=O)N[C@@H](CCC(=O)O)C(=O)N[C@H](CCCCNC(=O)CCOCCOCCOCCOCCOCCOCCOCCOCCOCCOCCOCCOCCn1cc(CCC(=O)NCCC(=O)N(C)CC(=O)N(C)CC(=O)N(C)CC(=O)N(C)CC(=O)N(C)CC(=O)N(C)CC(=O)N(C)CC(=O)N(C)CC(=O)N(C)CC(=O)N(C)CC(=O)N[C@@H](C)C(=O)N[C@@H](CCCCNC(=N)N)C(=O)N[C@@H](CC(=O)O)C(=O)N[C@H]3CSCCC(=O)N4CN5CN(C4)C(=O)CCSC[C@H](NC(=O)[C@H](CC(C)C)NC(=O)[C@@H]4CCCN4C(=O)[C@H](CC(N)=O)NC(=O)[C@H](C(C)C)NC(=O)[C@H](CC(C)C)NC(=O)[C@@H]4C[C@@H](O)CN4C3=O)C(=O)N[C@@H](CC(C)C)C(=O)N[C@@H](Cc3c[nH]cn3)C(=O)N3CCC[C@H]3C(=O)N[C@H](CC(=O)O)C(=O)N[C@@H](Cc3c[nH]c4ccccc34)C(=O)N[C@@H](CCCCNC(=N)N)C(=O)N[C@H](C(N)=O)CSCCC5=O)nn1)C(=O)N1CCC[C@H]1C(=O)N[C@@H](Cc1ccc(O)cc1)C(=O)N2 [BCY10570]		38	EC50 [2]: 0.41 nM
